Values quoted from earlier work in PMC12080252, “Daphnia magna as an Alternative Model for (Simultaneous) Bioaccumulation and Chronic Toxicity Assessment—Controlled Exposure Study Indicates High Hazard of Heterocyclic PAHs” (Environmental Science & Technology, 2025).
Values joined by “and” are separate entries in the source; they are usually repeats but may differ in a detail not shown here. Equal entries are not always repeated. Where two headings read alike, the source gives them in different places.

Experiments:
fish = conditions: cited from earlier work
[1] = Table S10; ref SI ref 23 (UK Environment Agency Report); cited from earlier work
D. magna or D. pulex = conditions: cited from earlier work; for accumulation in water fleas: compared with fish; for BCF (M of several values): ref SI refs 4, 5
[2] = system: aryl hydrocarbon receptor (AhR); conditions: cited from earlier work
D. magna = conditions: Table S1; footnote not given; cited from earlier work
[3] = D. magna or D. pulex, ref SI refs 8, 10

Compound | half-life (fish; fish, Table S10, ref SI ref 23) | log BCFL5% (fish; fish, Table S10, ref SI ref 23) | log k2 (fish; fish, Table S10, ref SI ref 23) | log KOW [1] | other results
Clc1cc2c(oc3c(Cl)c(Cl)c(Cl)c(Cl)c32)c(Cl)c1Cl [1,2,3,4,6,7,8-Heptachloro dibenzofuran] | 127.97 h | 3.16 | -2.27 h-1 | 7.40 | –
Clc1cc2c(c(Cl)c1Cl)Oc1cc(Cl)c(Cl)c(Cl)c1O2 [1,2,3,6,7,8-Hexachloro dibenzo-p-dioxin] | 332.71 h | 3.64 | -2.68 h-1 | 7.30 | –
Clc1cc2c(oc3cc(Cl)c(Cl)c(Cl)c32)c(Cl)c1Cl [1,2,3,6,7,8-Hexachloro dibenzofuran] | 213.28 h | 3.65 | -2.49 h-1 | 7.30 | –
Clc1cc2c(cc1Cl)Oc1c(cc(Cl)c(Cl)c1Cl)O2 [1,2,3,7,8-Pentachlorodibenzo-p-dioxin] | 554.52 h | 3.97 | -2.90 h-1 | 6.64 | –
Brc1cc(Br)c(-c2c(Br)cc(Br)cc2Br)c(Br)c1 [2,2',4,4',6,6'-hexa bromobiphenyl] | 2343.03 h | 4.55 | -3.53 h-1 | 7.20 | –
Brc1ccc(Br)c(-c2cc(Br)ccc2Br)c1 [2,2',5,5'-tetra bromobiphenyl] | 1697.50 h | 4.86 | -3.39 h-1 | 6.50 | –
Clc1cc2c(oc3c(Cl)c(Cl)c(Cl)cc32)c(Cl)c1Cl [2,3,4,6,7,8-Hexachloro dibenzofuran] | 166.36 h | 3.69 | -2.38 h-1 | 7.30 | –
Clc1cc2oc3c(Cl)c(Cl)c(Cl)cc3c2cc1Cl [2,3,4,7,8-Pentachloro dibenzofuran] | – | – | – | 6.64 | –
Clc1cc2oc3cc(Cl)c(Cl)cc3c2cc1Cl [2,3,7,8-Tetrachlorodibenzo furan] | 57.36 h | 2.89 | -1.92 h-1 | 6.53 | –
Brc1cc(Br)c(-c2ccccc2)c(Br)c1 [2,4,6-tri bromobiphenyl] | – | – | – | 6.03 | –
Cc1c2ccccc2cc2ccccc12 [9-methyl-anthracene] | – | – | – | – | half-life (D. magna or D. pulex; [3]): 4.8 h; log k2 (D. magna or D. pulex; [3]): -0.84 h-1
c1ccc2c(c1)ccc1c3ccccc3sc21 [Benzo[b]naphtho[2,1-d]thiophene] | – | – | – | – | accumulation in water fleas (D. magna or D. pulex): accumulate even more in water fleas
c1ccc2c(c1)Cc1c-2ccc2ccccc12 [Benzofluorene, benzo[a]fluorene] | – | – | – | – | body burden (D. magna or D. pulex; D. magna): 17600 µg/kg; log BAF*L5% (D. magna or D. pulex; D. magna): 4.09 L kg^-1 lipid
CC(C)OC(=O)C(C(=O)OC(C)C)=C1SCCS1 [Bis(1-methylethyl)ester, 1,3-dithiolan-2-ylidene propanedioic acid] | 3.65 h and 2.17 h | 1.45 and 1.59 and 1.65 | -0.72 h-1 and -0.49 h-1 | 2.88 | –
CCCCCCCCCCC(C)c1ccc(S(=O)(=O)O)cc1 (stereo not shown) [C-12-2-LAS] | 23.77 h | 2.16 | -1.54 h-1 | 4.71 | –
CCCCCCCC(CCCC)c1ccc(S(=O)(=O)O)cc1 (stereo not shown) [C-12-5-LAS] | 13.86 h | 1.00 | -1.30 h-1 | 4.71 | –
CC(C)C(C(=O)OC(C#N)c1cccc(Oc2ccccc2)c1)c1ccc(Cl)cc1 (stereo not drawn) [Cyano(3-phenoxyphenyl)methyl ester, 4-chloro-alpha-(1-methylethyl) benzeneacetic acid] | 75.62 h | 2.64 | -2.04 h-1 | 6.20 | –
ClC1C(Cl)C(Cl)C(Cl)C(Cl)C1Cl (stereo not shown) [Cyclohexane, 1,2,3,4,5,6-hexachloro-, (1a,2a,3B,4a,5a,6B)-] | 12.60 h | 2.81 | -1.26 h-1 | 3.72 | –
COc1ccc(C(c2ccc(OC)cc2)C(Cl)(Cl)Cl)cc1 [Methoxychlor] | – | – | – | – | accumulation in fish versus invertebrates (Figure 3B) (fish; in vivo): accumulating in invertebrates but not in fish
COP(=S)(OC)Oc1ccc(Cl)cc1C#N [Methyl isocyanothion] | 14.10 h | 2.09 | -1.31 h-1 | 3.58 | –
CC(C)Oc1cccc(NC(=O)c2ccccc2C(F)(F)F)c1 [N-[3-(1-Methylethoxy)phenyl]-2-(trifluoromethyl) benzamide] | 5.78 h | 1.32 | -0.92 h-1 | 3.70 | –
COP(=S)(OC)Oc1ccc(SC)c(C)c1 [O,O-Dimethyl O-[3-methyl-4-(methylthio)phenyl]ester phosphorothioic acid] | – | – | – | 4.17 | –
COP(=S)(OC)Oc1c(Cl)cc(C)cc1Cl [O-(2,6-Dichloro-4-methylphenyl) O,O-dimethyl ester, Phosphorothioic acid] | 17.33 h | 2.36 | -1.40 h-1 | 4.56 | –

Compound | half-life (fish; fish, Table S10, ref SI ref 23) | log BCFL5% (fish; fish, Table S10, ref SI ref 23) | log k2 (fish; fish, Table S10, ref SI ref 23) | log KOW [1] | other results
CCCCCCCCCCCCCOCCOCCOCCOCCOCCOCCOCCOCCO [Octaethylene glycol monotridecyl ether] | 1.65 h | 1.69 | -0.38 h-1 | – | –
c1ccc2nc3ccccc3cc2c1 [acridine] | – | – | – | – | AhR agonism [2]: weak to moderate aryl hydrocarbon receptor (AhR) agonists; half-life (D. magna or D. pulex; [3]): 0.32 h; log k2 (D. magna or D. pulex; [3]): 0.33 h-1
c1ccc2cc3ccccc3cc2c1 [anthracene] | – | – | – | – | AhR-mediated toxicity [2]: do not trigger AhR-mediated toxicity; BCF (M of several values) (D. magna or D. pulex; D. magna or D. pulex): 944; half-life (D. magna or D. pulex; [3]): 1.18 h; log k2 (D. magna or D. pulex; [3]): -0.23 h-1
c1ccc2nc3ccc4ccccc4c3cc2c1 [benz(a)acridine] | – | – | – | – | half-life (D. magna or D. pulex; [3]): 1.2 h; log k2 (D. magna or D. pulex; [3]): -0.24 h-1; lowest PNEC* (D. magna): 0.016 µg/L
c1ccc2cc3c(ccc4ccccc43)cc2c1 [benz[a]anthracene] | – | – | – | 5.76 | –
c1ccc2cc3c(cc2c1)sc1ccccc13 [benzo[b]naphtho[2,3-d]thiophene] | – | – | – | – | bioaccumulation in fish (fish): high bioaccumulation in fish
CC1(C)[C@H](C(=O)OCc2cccc(Oc3ccccc3)c2)[C@@H]1C=C(Cl)Cl [cis-Permethrin] | 36.97 h | 2.45 | -1.73 h-1 | 7.43 | –
c1ccc2c(c1)Oc1ccccc1O2 [dibenzo[1,4]dioxane] | – | – | – | – | bioaccumulation in fish (fish): high bioaccumulation in fish
c1ccc2c(c1)ccc1c3ccc4ccccc4c3[nH]c21 [dibenzocarbazole, 13H-dibenzo[a,i]carbazole] | – | – | – | – | bioaccumulation in fish (fish): high bioaccumulation in fish; half-life (D. magna or D. pulex; [3]): 9 h; log k2 (D. magna or D. pulex; [3]): -1.11 h-1; accumulation in water fleas (D. magna or D. pulex): accumulate even more in water fleas
c1ccc2c(c1)oc1ccccc12 [dibenzofuran] | – | – | – | – | AhR agonism [2]: weak to moderate aryl hydrocarbon receptor (AhR) agonists
c1ccc2c(c1)sc1ccccc12 [dibenzothiophene] | – | – | – | – | bioaccumulation in fish (fish): high bioaccumulation in fish; lowest PNEC* (D. magna): 0.24 µg/L
c1ccc2c(c1)Cc1ccccc1-2 [fluorene] | – | – | – | – | AhR-mediated toxicity [2]: do not trigger AhR-mediated toxicity
c1ccc2cnccc2c1 [isoquinoline] | – | – | – | – | half-life (D. magna or D. pulex; [3]): 0.04 h; log k2 (D. magna or D. pulex; [3]): 1.26 h-1
c1ccc2ccccc2c1 [naphthalene] | – | – | – | – | AhR-mediated toxicity [2]: do not trigger AhR-mediated toxicity; half-life (D. magna or D. pulex; [3]): 0.42 h; log k2 (D. magna or D. pulex; in vivo): 0.22 h-1
c1cc2cccc3c4cccc5cccc(c(c1)c23)c54 [perylene] | – | – | – | – | half-life (D. magna or D. pulex; [3]): 5.02 h; log k2 (D. magna or D. pulex; [3]): -0.86 h-1
c1ccc2c(c1)ccc1ccccc12 [phenanthrene] | – | – | – | – | accumulation in fish versus invertebrates (Figure 3B) (fish; in vivo): accumulated in fish but not in Daphnia and H. azteca; AhR-mediated toxicity [2]: do not trigger AhR-mediated toxicity; BCF (M of several values) (D. magna or D. pulex; D. magna or D. pulex): 325; log k2 (D. magna or D. pulex; [3]): -0.27 h-1; half-life (D. magna or D. pulex; in vivo): 1.29 h
ClC(Cl)=C(c1ccc(Cl)cc1)c1ccc(Cl)cc1 [pp’DDE] | – | – | – | – | BCF (M of several values) (fish; fish, ref SI refs 4, 7, 12): 54250
c1ccc2ncccc2c1 [quinoline] | – | – | – | – | BCF (M of several values) (fish; in vivo): 2.5; log BCFL5% (fish; in vivo): 1.92
c1ccc2c(c1)Sc1ccccc1S2 [thianthrene] | – | – | – | – | bioaccumulation in fish (fish): high bioaccumulation in fish
c1ccc2c(c1)Cc1ccccc1S2 [thioxanthene] | – | – | – | – | lowest PNEC* (D. magna): 0.32 µg/L
c1ccc2c(c1)Cc1ccccc1O2 [xanthene] | – | – | – | – | bioaccumulation in fish (fish; in vivo): high bioaccumulation in fish; AhR agonism [2]: weak to moderate aryl hydrocarbon receptor (AhR) agonists
Phenol, 4-nonyl-, branched, | 9.90 h | 2.58 | -1.15 h-1 | 5.92 | –
